{"source": "patent US9701691B2", "about": "“Thienopyrimidine compounds” (Hoffmann-La Roche Inc., priority 2012, dated 2017)", "note": "Where a name gives a salt, the structure may show the parent alone."}
{"target": "Recombinant human full length SYK protein (Homo sapiens (Human), UniProt P43405)", "test": "SYK kinase assay (33P ATP incorporation into biotinylated peptide)", "assay_type": "biochemical", "details": "ATP 20 μM", "description": "This assay is performed in 96-well format for IC50 determination with 8 samples which represented 10 half log dilutions and a 40 μL reaction volume. […] Phosphorylated products were detected upon termination of reactions with EDTA and the addition of Streptavidin coated beads.\nAssay plates: 96-well MultiScreen 0.65 um filter plates (Millipore Cat. No.: MADVNOB10)\nfinal concentration: 50 mM HEPES pH7.5\nBSA: Bovine Serum Albumin Fraction V, fatty acid free (Roche Diagnostics GmbH, Cat. No. 9100221) diluted to a final concentration of 0.1%\nAssay Dilution Buffer (ADB): 50 mM HEPES, 0.1 mM EGTA, 0.1 mM Na Vanadate, 0.1 mM β-glycerophosphate, 10 mM MgCl2, 1 mM DTT, 0.1% BSA, pH 7.5\nBead wash buffer: 10 g/L PBS (Phosphate buffered saline) with 2M NaCl+1% phosphoric acid.", "units": {"IC50": "µM"}}
{"smiles": "Cc1cc(NC(=O)c2csc3cnc(N[C@@H]4CCCC[C@@H]4N)nc23)cc2cccnc12", "note": "[Compound 2, 2-((1R,2S)-2-Amino-cyclohexylamino)-thieno[3,2-d]pyrimidine-7-carboxylic acid (8-methyl-quinolin-6-yl)-amide]", "IC50": "< 0.001"}
{"tested_on": "B-cell lymphocytes (CD20+) in human whole blood, CD69 up-regulation", "test": "B Cell CD69 Up-Regulation Assay in Human Whole Blood", "assay_type": "cell-based", "details": "goat anti-human IgM 50 μg/ml stimulation for 20 hrs, CD69hi CD20+ B cells, read-out: HWB, IC50", "description": "B Cell CD69 Up-Regulation Assay in Human Whole Blood\nHuman Blood was collected from healthy volunteers into Vacutainers (BD Biosciences, San Jose, Calif.) containing sodium heparin. Test compound was suspended in DMSO and nine half-log serial dilutions were made. The concentration of DMSO in the assay was 0.5%. […] whole blood was pre-incubated with compound for 30 min and then stimulated with goat anti-human IgM (50 μg/ml, Southern Biotech) for 20 hrs. At the end of the 20 hour incubation, samples were incubated with fluorochrome-conjugated antibodies, PE mouse anti-human CD20 and APC Mouse anti-human CD69 (BD Biosciences), for 30 minutes. Samples were then lysed with Lyse solution (BD) and washed with PBS containing 2% fetal bovine serum (FBS). Fluorescent signals were acquired on flow cytometer LSR II (BD) and data were analyzed by Flow Jo. The percentage of activated (CD69hi) B-cell lymphocytes (CD20+) were determined using un-stimulated (negative control) and stimulated (positive control) wells as reference guidelines. The percentage inhibition was calculated and an IC50 curve was constructed using Xfit in Microsoft Excel with sigmoidal curve fitting.", "units": {"IC50": "µM"}}
{"smiles": "N[C@H]1CCCC[C@H]1Nc1ncc2scc(C(=O)Nc3nc4ccccc4[nH]3)c2n1", "note": "[Compound 9, 2-((1R,2S)-2-Amino-cyclohexylamino)-thieno[3,2-d]pyrimidine-7-carboxylic acid (1H-benzoimidazol-2-yl)-amide]", "IC50": 50}
{"smiles": "N[C@H]1CCCC[C@H]1Nc1ncc2scc(C(=O)Nc3nc4ccccc4s3)c2n1", "note": "[Compound 8, 2-((1R,2S)-2-Amino-cyclohexylamino)-thieno[3,2-d]pyrimidine-7-carboxylic acid benzothiazol-2-ylamide]", "IC50": 50}
{"smiles": "Cc1cc(C)nc(NC(=O)c2csc3cnc(N[C@@H]4CCOC[C@@H]4N)nc23)c1", "note": "[Compound 24, 2-((3R,4R)-3-Amino-tetrahydro-pyran-4-ylamino)-thieno[3,2-d]pyrimidine-7-carboxylic acid (4,6-dimethyl-pyridin-2-yl)-amide]", "IC50": 1.53}
{"smiles": "Cc1cc(NC(=O)c2csc3cnc(N[C@@H]4CCCC[C@@H]4N)nc23)cc2cccnc12", "note": "[Compound 2, 2-((1R,2S)-2-Amino-cyclohexylamino)-thieno[3,2-d]pyrimidine-7-carboxylic acid (8-methyl-quinolin-6-yl)-amide]", "IC50": 0.19}
{"smiles": "N[C@H]1COCC[C@H]1Nc1ncc2scc(C(=O)Nc3cccc(-n4ccnn4)n3)c2n1", "note": "[Compound 6, 2-((3R,4R)-3-Amino-tetrahydro-pyran-4-ylamino)-thieno[3,2-d]pyrimidine-7-carboxylic acid (6-[1,2,3]triazol-1-yl-pyridin-2-yl)-amide]", "IC50": 4.29}
{"smiles": "Cn1cc(NC(=O)c2csc3cnc(N[C@@H]4CCOC[C@@H]4N)nc23)cn1", "note": "[Compound 21, 2-((3R,4R)-3-Amino-tetrahydro-pyran-4-ylamino)-thieno[3,2-d]pyrimidine-7-carboxylic acid (1-methyl-1H-pyrazol-4-yl)-amide]", "IC50": 5.8}
{"smiles": "CCc1cccc(NC(=O)c2csc3cnc(N[C@@H]4CCOC[C@@H]4N)nc23)n1", "note": "[Compound 1, 2-((3R,4R)-3-Amino-tetrahydro-pyran-4-ylamino)-thieno[3,2-d]pyrimidine-7-carboxylic acid (6-ethyl-pyridin-2-yl)-amide]", "IC50": 5.38}
{"smiles": "Cn1cnc2c(NC(=O)c3csc4cnc(N[C@@H]5CCOC[C@@H]5N)nc34)cccc21", "note": "[Compound 11, 2-((3R,4R)-3-Amino-tetrahydro-pyran-4-ylamino)-thieno[3,2-d]pyrimidine-7-carboxylic acid (1-methyl-1H-benzoimidazol-4-yl)-amide hydrochloride]", "IC50": 1.44}
{"smiles": "N[C@H]1COCC[C@H]1Nc1ncc2scc(C(=O)Nc3ccc4ccccc4c3)c2n1", "note": "[Compound 16, 2-((3R,4R)-3-Amino-tetrahydro-pyran-4-ylamino)-thieno[3,2-d]pyrimidine-7-carboxylic acid naphthalen-2-ylamide]", "IC50": 3.73}
{"smiles": "Cn1cnc2c(NC(=O)c3csc4cnc(NCCN)nc34)cccc21", "note": "[Compound 12, 2-(2-Amino-ethylamino)-thieno[3,2-d]pyrimidine-7-carboxylic acid (1-methyl-1H-benzoimidazol-4-yl)-amide trifluoroacetate]", "IC50": 3.06}
{"smiles": "Cc1ccc(NC(=O)c2csc3cnc(N[C@@H]4CCOC[C@@H]4N)nc23)nc1C", "note": "[Compound 25, 2-((3R,4R)-3-Amino-tetrahydro-pyran-4-ylamino)-thieno[3,2-d]pyrimidine-7-carboxylic acid (5,6-dimethyl-pyridin-2-yl)-amide]", "IC50": 1.67}
{"smiles": "N[C@H]1COCC[C@H]1Nc1ncc2scc(C(=O)Nc3cnc4cccnn34)c2n1", "note": "[Compound 23, 2-((3R,4R)-3-Amino-tetrahydro-pyran-4-ylamino)-thieno[3,2-d]pyrimidine-7-carboxylic acid imidazo[1,2-b]pyridazin-3-ylamide]", "IC50": 1.36}
{"smiles": "N[C@H]1COCC[C@H]1Nc1ncc2scc(C(=O)Nc3cnn4cccnc34)c2n1", "note": "[Compound 22, 2-((3R,4R)-3-Amino-tetrahydro-pyran-4-ylamino)-thieno[3,2-d]pyrimidine-7-carboxylic acid pyrazolo[1,5-a]pyrimidin-3-ylamide]", "IC50": 0.92}
{"smiles": "Cn1ccc(NC(=O)c2csc3cnc(N[C@@H]4CCOC[C@@H]4N)nc23)n1", "note": "[Compound 19, 2-((3R,4R)-3-Amino-tetrahydro-pyran-4-ylamino)-thieno[3,2-d]pyrimidine-7-carboxylic acid (1-methyl-1H-pyrazol-3-yl)-amide]", "IC50": 10.7}
{"smiles": "N[C@H]1CCCC[C@H]1Nc1ncc2scc(C(=O)Nc3ccc4ncccc4n3)c2n1", "note": "[Compound 10, 2-((1R,2S)-2-Amino-cyclohexylamino)-thieno[3,2-d]pyrimidine-7-carboxylic acid [1,5]naphthyridin-2-ylamide]", "IC50": 3.74}
{"smiles": "Cn1nc(NC(=O)c2csc3cnc(N[C@@H]4CCCC[C@@H]4N)nc23)c2ccc(F)cc21", "note": "[Compound 15, 2-((1R,2S)-2-Amino-cyclohexylamino)-thieno[3,2-d]pyrimidine-7-carboxylic acid (6-fluoro-1-methyl-1H-indazol-3-yl)-amide trifluoroacetate]", "IC50": 50}
{"smiles": "CCc1cc(NC(=O)c2csc3cnc(N[C@@H]4CCCC[C@@H]4N)nc23)cc2cccnc12", "note": "[Compound 3, 2-((1R,2S)-2-Amino-cyclohexylamino)-thieno[3,2-d]pyrimidine-7-carboxylic acid (8-ethyl-quinolin-6-yl)-amide]", "IC50": 0.76}
{"smiles": "N[C@H]1COCC[C@H]1Nc1ncc2scc(C(=O)Nc3cccc(-n4nccn4)n3)c2n1", "note": "[Compound 5, 2-((3R,4R)-3-Amino-tetrahydro-pyran-4-ylamino)-thieno[3,2-d]pyrimidine-7-carboxylic acid (6-[1,2,3]triazol-2-yl-pyridin-2-yl)-amide]", "IC50": 3.79}
{"smiles": "N[C@H]1CCCC[C@H]1Nc1ncc2scc(C(=O)Nc3ccc4cnccc4n3)c2n1", "note": "[Compound 7, 2-((1R,2S)-2-Amino-cyclohexylamino)-thieno[3,2-d]pyrimidine-7-carboxylic acid [1,6]naphthyridin-2-ylamide]", "IC50": 0.55}
{"smiles": "Cc1ccc(NC(=O)c2csc3cnc(N[C@@H]4CCOC[C@@H]4N)nc23)cc1", "note": "[Compound 18, 2-((3R,4R)-3-Amino-tetrahydro-pyran-4-ylamino)-thieno[3,2-d]pyrimidine-7-carboxylic acid p-tolylamide]", "IC50": 12.2}
{"smiles": "Cc1nc(NC(=O)c2csc3cnc(N[C@@H]4CCCC[C@@H]4N)nc23)ccc1C#N", "note": "[Compound 4, 2-((1R,2S)-2-Amino-cyclohexylamino)-thieno[3,2-d]pyrimidine-7-carboxylic acid (5-cyano-6-methyl-pyridin-2-yl)-amide]", "IC50": 50}
